{
  "source": "PubChem BioAssay AID588780",
  "about": "(Sanford-Burnham Center for Chemical Genomics, 2011)",
  "note": "The source made the active and inactive calls.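 The calls were made as follows: active = compounds whose fitted half-maximal concentration in the cell-protection dose series is at or below a set limit; inactive = the rest.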",
  "data": [
    {"system": "H9c2 cardiomyocytes, 2-deoxyglucose stress, ATP luminescence, 2 h", "assay": "protection of cardiomyocytes from 2-deoxyglucose injury, dose response, cell-based, 2-deoxyglucose stress, uHTS hits (AID 588780)", "values": [
      {"smiles": "O=c1oc(-c2ccco2)nc2c1cnn2-c1ccccc1", "IC50": "> 79 µM (inactive)"},
      {"smiles": "COc1ccc(/C=N/NC(=O)c2ccc(COc3cccc4cccnc34)cc2)cc1OC", "IC50": "> 79 µM (inactive)"},
      {"smiles": "CCOC(=O)c1c(C)[nH]c(C)c1C(=O)COc1ncnc2cc([N+](=O)[O-])ccc12", "IC50": "14.6 µM"},
      {"smiles": "Cc1ccccc1OCC(=O)NNC(=O)Cn1[nH]c(=O)c2ccccc2c1=O", "IC50": "> 79 µM (inactive)"},
      {"smiles": "O=C(Nc1ccccc1C(=O)Nc1ccccc1C(=O)NCc1ccco1)c1ccco1", "IC50": "8.02 µM"},
      {"smiles": "O=c1cc(-c2ccncc2)oc2ccccc12", "IC50": "> 79 µM (inactive)"},
      {"smiles": "COc1cc(/C=C/c2nc(-c3ccccc3O)n[nH]2)cc(OC)c1OC", "IC50": "> 79 µM (inactive)"},
      {"smiles": "O=C(COc1cccc2c1CCNC2=O)Nc1ccc(F)cc1", "IC50": "> 79 µM (inactive)"},
      {"smiles": "CCOc1ccccc1NC(=O)c1oc2ccccc2c1NC(=O)C1CCCO1", "note": "(stereo not drawn)", "IC50": "10.6 µM"},
      {"smiles": "COc1cc(C(=O)Nc2nc(OC)c(-c3ccccc3)c(OC)n2)cc(OC)c1OC", "IC50": "> 79 µM (inactive)"},
      {"smiles": "COc1ccc(Nc2nnc(-c3ccc(O)cc3)c3ccccc23)cc1C(N)=O", "IC50": "> 79 µM (inactive)"},
      {"smiles": "Cc1cc(C)n2nc(C(=O)N/N=C/c3c4ccccc4cc4ccccc34)nc2n1", "IC50": "> 79 µM (inactive)"},
      {"smiles": "O=C(N/N=C/c1cn(-c2ccccc2)nc1-c1cccnc1)c1ccccc1", "IC50": "12.8 µM"},
      {"smiles": "Cc1nc(N2CCN(c3ccccn3)CC2)c2c(C)c(C(=O)Nc3ccccc3F)sc2n1", "IC50": "10.5 µM"},
      {"smiles": "O=c1[nH]c(CN2CCCC2)nc2sc3c(c12)CCC3", "IC50": "> 79 µM (inactive)"},
      {"smiles": "COC(=O)c1cccc(Nc2nc(-c3cccnc3)nc3ccccc23)c1", "IC50": "> 79 µM (inactive)"},
      {"smiles": "Cc1ccc(N2C(=O)CS/C2=C(\\C(Cl)=C(Cl)Cl)[N+](=O)[O-])cc1", "IC50": "> 79 µM (inactive)"},
      {"smiles": "COc1ccccc1OCC(=O)Nc1sc2c(c1C(=O)NCC1CCCO1)CCC2", "note": "(stereo not drawn)", "IC50": "> 79 µM (inactive)"},
      {"smiles": "NC(=O)c1ccccc1OCC(=O)NC12CC3CC(CC(C3)C1)C2", "IC50": "> 79 µM (inactive)"},
      {"smiles": "CC(=O)c1ccc(N2CCN(C(=O)C3CCCN(c4ncnc5c4nc4n5CCCCC4)C3)CC2)cc1", "note": "(stereo not drawn)", "IC50": "17.5 µM"},
      {"smiles": "COc1c(C)cc(Br)cc1C(=O)Nc1cccc(-c2nc3ncccc3o2)c1", "IC50": "> 79 µM (inactive)"},
      {"smiles": "COc1ccc(NCc2n[nH]c(=O)c3ccccc23)cc1", "IC50": "> 79 µM (inactive)"},
      {"smiles": "Cc1cc(C)c2c(N)c(C(=O)N/N=C/c3cccnc3)sc2n1", "IC50": "19.1 µM"},
      {"smiles": "O=c1[nH]nc(-c2cccs2)c2ccccc12", "IC50": "5.51 µM"},
      {"smiles": "CCOC(=O)C1=C(C)NC(C)=C(C(=O)OCCNC(=O)c2cccnc2)C1c1cccc([N+](=O)[O-])c1", "note": "(stereo not drawn)", "IC50": "28.6 µM"},
      {"smiles": "CCC(=O)Nc1cccc(-c2nnc(-c3cccc(NC(=O)CC)c3)o2)c1", "IC50": "> 79 µM (inactive)"},
      {"smiles": "NC(=O)c1nsc(C(=O)N(CCc2ccccc2)C(C(=O)NC2CCCC2)c2ccco2)c1N", "note": "(stereo not drawn)", "IC50": "22.4 µM"},
      {"smiles": "COc1ccccc1OP(=O)(Nc1cccnc1)Oc1ccccc1OC", "IC50": "> 79 µM (inactive)"},
      {"smiles": "COc1cc(NC(=O)c2cccc3c(-c4cnn(C)c4)coc23)cc(OC)c1OC", "IC50": "> 79 µM (inactive)"},
      {"smiles": "Cc1cc(OCC(=O)N2CCOCC2)cc2oc(=O)c3ccccc3c12", "IC50": "14.7 µM"},
      {"smiles": "Cc1ccccc1NP(=O)(Oc1ccccc1F)Oc1ccccc1F", "IC50": "24.8 µM"},
      {"smiles": "c1ccc(-c2cn3c(n2)CCc2ccc4cccnc4c2-3)cc1", "IC50": "> 79 µM (inactive)"},
      {"smiles": "CCN(CC)C(=O)CSc1nc2ccccc2c(=O)[nH]1", "IC50": "> 79 µM (inactive)"},
      {"smiles": "COc1cc(-c2cc(C(=O)Nc3ccccc3N3CCOCC3)c3ccccc3n2)cc(OC)c1OC", "IC50": "> 79 µM (inactive)"},
      {"smiles": "CCn1c(O)c(/C=N/N=C2CCCC2)c2ccc(C3=NNC(=O)CC3)cc21", "IC50": "> 79 µM (inactive)"},
      {"smiles": "C=CCOC(=O)COc1ccc2c3c(c(=O)oc2c1)CCCC3", "IC50": "28.1 µM"},
      {"smiles": "CC(OC(=O)CCc1nc2ccccc2c(=O)[nH]1)C(=O)NCc1ccc2c(c1)OCO2", "note": "(stereo not drawn)", "IC50": "> 79 µM (inactive)"},
      {"smiles": "O=C(Cn1[nH]c(=O)c2ccccc2c1=O)NNC(=O)c1ccccc1", "IC50": "9.4 µM"},
      {"smiles": "COc1ccc(C2/C=C\\CN(S(=O)(=O)c3cccc4cccnc34)CC(=O)N2Cc2ccc(F)cc2)cc1", "note": "(stereo not drawn)", "IC50": "> 79 µM (inactive)"},
      {"smiles": "COc1ccc(NS(=O)(=O)c2cc(NC(=O)Cc3n[nH]c(=O)c4ccccc34)ccc2OC)cc1", "IC50": "> 79 µM (inactive)"},
      {"smiles": "CC(C)c1cc(N2CCN(C(=O)c3ccco3)CC2)n2c(nc3ccccc32)c1C#N", "IC50": "28.5 µM"},
      {"smiles": "CSc1nc(Cl)c(Br)c(N2CC2)n1", "IC50": "> 79 µM (inactive)"},
      {"smiles": "O=C(c1ccco1)N1CCN(Cc2nc3ccc([N+](=O)[O-])cc3c(=O)n2-c2ccccc2F)CC1", "IC50": "> 79 µM (inactive)"},
      {"smiles": "COc1cc(/C=C/c2nc3ccccc3c(=O)n2-c2ccccc2O)ccc1O", "IC50": "20.6 µM"},
      {"smiles": "CNS(=O)(=O)c1ccc2nc(NC(=O)/C=C/c3ccco3)sc2c1", "IC50": "> 79 µM (inactive)"},
      {"smiles": "O=C(NC1CCCCC1)C(c1ccc2ncccc2c1)N(Cc1ccccc1)C(=O)c1ccc2c(c1)OCCO2", "note": "(stereo not drawn)", "IC50": "32 µM (inactive)"},
      {"smiles": "CCOC(=O)CNS(=O)(=O)c1cc(-c2n[nH]c(=O)c3ccccc23)ccc1C", "IC50": "> 79 µM (inactive)"},
      {"smiles": "CC1Cc2ccccc2N1C(=O)Cn1nc(C(=O)O)c2ccccc2c1=O", "note": "(stereo not drawn)", "IC50": "> 79 µM (inactive)"}
    ]}
  ]
}
